# “Also recorded” adds a separate entry of the source.
# Experiments:
# Type in all cases: in vivo, rat
# diabetic rats [1] = assay: C peptide serum concentration, diabetic rats; details: for C peptide serum concentration: doses daily for 5 days orally, n = 8
# Experimental: (§1) In this study white, adult male Wistar rats with average weights between 200 to 300 grams were used. During the study, the animals had free access to food and water and were exposed to changes of dark and light every 12 hours. Access to the food was restricted 12 hours before measurement of glucose blood level with free access to water.
# (§2) The experiment was performed on a normoglycaemic group (Group 1, 32 rats, 8 per treatment) and diabetic rats (Group 2, 32 rats, 8 per treatment). For the diabetic rat experiments diabetes was induced with intraperitoneal injection of alloxan 100 mg/kg. Alloxan is very well verified diabetogenic substance for inducing diabetes in rats and other animal species (rabbit, dog, mice et cetera). See, for example, McLetchie, J.R. Coll Physicians Edinb, 32: 134-142, 2002; Lenzen & Panten, Diabetologia, 31: 337-342, 1988; Shaw et al., Lancet, 11: 384-386, 1943; Goldner & Gomori, Endocrinology, 35: 241-268, 1943.
# (§3) 1). Saline solution, 1 ml/kg, per orally, daily for 5 days (control group); 2). Stevioside, 20 mg/kg, orally, daily for 5 days; 3). Sodium salt of 3α,7α-dihydroxy-12-oxo-5β-cholanate (monoketocholic acid-MKC), 4 mg/kg, orally, daily for 5 days; and 4). 1 ml/kg of the composition described in Example 1, orally, daily for 5 days.
# (§4) In the diabetic rat the criterion for successful diabetes induction was blood glucose greater than 20 mmol/L on the third day after the last alloxan dose after 3 hours of fasting with free access to water.
# 15 minutes after the 5th dose, the animals were exposed to an oral glucose tolerance test (OGTT) using 4 g/kg, orally. Glucose blood concentrations were measured before the treatment, after the 5th dose, before OGTT, and 30 minutes after OGTT. […]
# All biochemical analyses of serum were done by standard procedures, as recommended by the International Federation for Clinical Chemistry (IFCC), on automatic spectrophotometer LISA 300 plus with International Quality Control. The following were measured in serum: […]
# diabetic rats [2] = assay: Serum cholesterol and lipid profile after 5 days treatment, diabetic rats; details: for HDL cholesterol serum concentration / LDL cholesterol serum concentration / Serum total cholesterol concentration: 5 days treatment orally; for HDL cholesterol serum concentration / LDL cholesterol serum concentration / Serum total cholesterol concentration / LDL:HDL Ratio (ratios of means): n = 8; for LDL:HDL Ratio (ratios of means): after 5 days treatment
# Experimental: as §2, §3
# (§5) 15 minutes after the 5th dose, the animals were exposed to an oral glucose tolerance test (OGTT) using 4 g/kg, orally. Glucose blood concentrations were measured before the treatment, after the 5th dose, before OGTT, and 30 minutes after OGTT. Then the animals were anaesthetised with urethane injected intraperitoneally, 750 mg/kg, and blood samples for further biochemical analyses were taken by cardiopunction.
# (§6) All biochemical analyses of serum were done by standard procedures, as recommended by the International Federation for Clinical Chemistry (IFCC), on automatic spectrophotometer LISA 300 plus with International Quality Control. The following were measured in serum:
# (§7) 1). Triglycerides concentration (GPO-PAP kit obtained from Boehringer Mannheim GmbH (Mannheim, Germany) in accordance with the manufacturers instructions) 2). Total low density lipoprotein (LDL) and high density lipoprotein (HDL) 3). Cholesterol concentration (CHOD-PAP kit obtained from Boehringer Mannheim GmbH (Mannheim, Germany) in accordance with the manufacturers instructions); and 4). C-peptide concentration.
# (§8) The composition from Example 1 was trialled to see the effect on cholesterol levels and on serum lipid profiles. Generally the desired outcome was a decrease in low density lipoprotein (LDL), with no concomitant decrease in high density lipoprotein (HDL). It was also hypothesised that there would be a compatibility with glycaemic effects shown in Example 2.
# (§9) The experimental procedures were essentially those described in Example 2.
# diabetic Wistar rats = assay: Blood glucose and OGTT after 5 days oral treatment, alloxan-diabetic rats; details: for Glucose blood concentration, After OGTT / Glucose blood concentration, After treatment (one dose daily for 5 days) / Glucose blood concentration, Before treatment: diabetic Wistar rats (alloxan), n = 8; for Glucose blood concentration, After OGTT: 30 minutes after OGTT (glucose 4 g/kg orally) after the 5th dose; for Glucose blood concentration, After treatment (one dose daily for 5 days): MKH 4 mg/kg, stevioside 20 mg/kg orally per day, before OGTT; for Glucose blood concentration, Before treatment: baseline of the group before treatment; for Effect on glucose levels under increased glucose loading during the OGTT (in words): substances given alone, rat group not given
# Experimental: as §1, §2, §3, §4, §5
# [3] = tested on: normoglycaemic Wistar rats; assay: Blood glucose and oral glucose tolerance test (OGTT) after 5 days oral treatment, normoglycaemic rats; details: n = 8; for Glucose blood concentration, After OGTT: 30 minutes after OGTT (glucose 4 g/kg orally) after the 5th dose; for Glucose blood concentration, After treatment (one dose daily for 5 days): MKH 4 mg/kg, stevioside 20 mg/kg orally per day, before OGTT; for Glucose blood concentration, Before treatment: baseline of the group before treatment
# Experimental: as §1, §2, §3, §5
# normoglycaemic rats [4] = assay: Serum cholesterol and lipid profile after 5 days treatment, normoglycaemic rats; details: for Change in HDL serum cholesterol concentration (in words) / Change in LDL serum cholesterol concentration versus control (in words) / Change in total cholesterol serum concentration (in words): normoglycaemic (non-diabetic) rats, 5 days treatment; for HDL serum cholesterol concentration / LDL serum cholesterol concentration / Serum total cholesterol concentration / LDL:HDL Ratio (ratios of means): normoglycaemic rats, n = 8; for HDL serum cholesterol concentration / LDL serum cholesterol concentration / Serum total cholesterol concentration: 5 days treatment orally; for LDL:HDL Ratio (ratios of means): after 5 days treatment
# Experimental: as §3, §5, §6, §7, §8, §9
# normoglycaemic rats [5] = assay: C peptide serum concentration, normoglycaemic rats; details: for Effect on C peptide levels (in words): non-diabetic rats, 5 days treatment; for C peptide serum concentration: normoglycaemic rats, doses daily for 5 days orally, n = 8
# Experimental: as §1, §2, §3, §5, §6, §7
# diabetic rats [6] = assay: Serum cholesterol concentrations after 7 day oral treatment of diabetic rats (lovastatin, MKH, combination); details: for HDL cholesterol / LDL cholesterol / LDL/HDL ratio / Total cholesterol: 7 day oral treatment, lovastatin 20 mg/kg/day, MKH 2 mg/kg/day, n = 8; for Change in total cholesterol (in words): 7 days oral treatment
# [7] = 7 days treatment, MKH 2 mg/kg, lovastatin 20 mg/kg orally
compound,measurement,setting,value
C=C1C[C@@]23CC[C@H]4[C@@](C)(CCC[C@@]4(C)C(=O)O[C@@H]4O[C@H](CO)[C@@H](O)[C@H](O)[C@H]4O)[C@@H]2CC[C@]1(O[C@@H]1O[C@H](CO)[C@@H](O)[C@H](O)[C@H]1O[C@@H]1O[C@H](CO)[C@@H](O)[C@H](O)[C@H]1O)C3 [Stevioside],Effect on C-peptide (in words),diabetic rats [1]; 5 days treatment,significant increases
same,C peptide serum concentration,diabetic rats [1],230.12 ± 28.45 pmol/L
same,Change in LDL cholesterol levels (in words),diabetic rats [2]; 5 days treatment,highly significant decrease
same,Change in total cholesterol serum concentration (in words),diabetic rats [2]; 5 days treatment,no significant changes
same,HDL cholesterol serum concentration,diabetic rats [2],0.85 ± 0.20 mmol/L
same,LDL cholesterol serum concentration,diabetic rats [2],0.42 ± 0.09 mmol/L
same,Serum total cholesterol concentration,diabetic rats [2],1.39 ± 0.31 mmol/L
same,LDL:HDL Ratio (ratios of means),diabetic rats [2],0.49
same,"Glucose blood concentration, After OGTT",diabetic Wistar rats,28.03 ± 1.08 mmol/L
same,"Glucose blood concentration, After treatment (one dose daily for 5 days)",diabetic Wistar rats,22.53 ± 1.07 mmol/L
same,"Glucose blood concentration, Before treatment",diabetic Wistar rats,25.14 ± 1.87 mmol/L
same,Effect on glucose levels under increased glucose loading during the OGTT (in words),diabetic Wistar rats,beneficial effects
same,"Glucose blood concentration, After OGTT",[3],11.4 ± 2.9 mmol/L
same,"Glucose blood concentration, After treatment (one dose daily for 5 days)",[3],5.47 ± 0.67 mmol/L
same,"Glucose blood concentration, Before treatment",[3],6.95 ± 0.99 mmol/L
same,Change in HDL serum cholesterol concentration (in words),normoglycaemic rats [4],no significant changes
same,Change in LDL serum cholesterol concentration versus control (in words),normoglycaemic rats [4],significantly decreased (one third of control values)
same,Change in total cholesterol serum concentration (in words),normoglycaemic rats [4],no significant changes
same,HDL serum cholesterol concentration,normoglycaemic rats [4],0.78 ± 0.18 mmol/L
same,LDL serum cholesterol concentration,normoglycaemic rats [4],0.1 ± 0.08 mmol/L
same,Serum total cholesterol concentration,normoglycaemic rats [4],1.1 ± 0.30 mmol/L
same,LDL:HDL Ratio (ratios of means),normoglycaemic rats [4],0.13
same,Effect on C peptide levels (in words),normoglycaemic rats [5],"Neither stevioside or 3α,7α-dihydroxy-12-oxo-5β-cholanate alone had statistically significant effects"
same,C peptide serum concentration,normoglycaemic rats [5],294 ± 93.2 pmol/L
"C[C@H](CCC(=O)[O-])[C@H]1CC[C@H]2[C@@H]3[C@H](O)C[C@@H]4C[C@H](O)CC[C@]4(C)[C@H]3CC(=O)[C@]12C.[Na+] [MKH, Sodium salt of 3α,7α-dihydroxy-12-oxo-5β-cholanate]",C peptide serum concentration,diabetic rats [1],178.38 ± 34.25 pmol/L
same,Change in LDL cholesterol levels (in words),diabetic rats [2]; 5 days treatment,decreases in LDL levels and while these were not statistically significant
same,Change in LDL:HDL ratio (in words),diabetic rats [2]; 5 days treatment,slight increase
same,Change in total cholesterol serum concentration (in words),diabetic rats [2]; 5 days treatment,no significant changes
same,HDL cholesterol serum concentration,diabetic rats [2],0.50 ± 0.12 !! mmol/l
same,LDL cholesterol serum concentration,diabetic rats [2],0.56 ± 0.17 mmol/L
same,Serum total cholesterol concentration,diabetic rats [2],1.03 ± 0.26 mmol/L
same,Change in HDL levels (in words),"diabetic rats [2]; 5 days treatment, MKH 4 mg/kg",A decrease was observed
same,LDL:HDL Ratio (ratios of means),diabetic rats [2],1.12
same,"Glucose blood concentration, After OGTT",diabetic Wistar rats,27.05 ± 1.17 mmol/L
same,"Glucose blood concentration, After treatment (one dose daily for 5 days)",diabetic Wistar rats,22.34 ± 1.15 x mmol/L
same,"Glucose blood concentration, Before treatment",diabetic Wistar rats,24.73 ± 2.15 mmol/L
same,Effect on glucose levels before and after the OGTT (in words),"diabetic Wistar rats; diabetic rats, 5 days treatment",significant decrease
same,Effect on glucose levels under increased glucose loading during the OGTT (in words),diabetic Wistar rats,beneficial effects
same,"Glucose blood concentration, After OGTT",[3],8.52 ± 3.19 mmol/L
same,"Glucose blood concentration, After treatment (one dose daily for 5 days)",[3],5.42 ± 1.15 mmol/L
same,"Glucose blood concentration, Before treatment",[3],6.82 ± 2.15 mmol/L
same,HDL cholesterol,diabetic rats [6],0.89 ± 0.14 mmol/L
same,LDL cholesterol,diabetic rats [6],0.03 ± 0.04 mmol/L
same,LDL/HDL ratio,diabetic rats [6],0.04 ± 0.04
same,Total cholesterol,diabetic rats [6],1.21 ± 0.14 mmol/L
same,Change in total cholesterol (in words),diabetic rats [6],reduced total cholesterol by a similar amount
same,Change in HDL levels (in words),diabetic rats [6]; [7],this effect was not observed; also recorded: did not do so
same,Change in LDL levels (in words),diabetic rats [6]; [7],very highly significant decrease; also recorded: significantly greater than that achieved by Lovastatin
same,Change in LDL:HDL ratio (in words),diabetic rats [6]; Day 7,significant decrease
same,Change in HDL serum cholesterol concentration (in words),normoglycaemic rats [4],no significant changes
same,Change in LDL serum cholesterol concentration versus control (in words),normoglycaemic rats [4],significantly decreased (one third of control values)
same,Change in total cholesterol serum concentration (in words),normoglycaemic rats [4],no significant changes
same,HDL serum cholesterol concentration,normoglycaemic rats [4],0.73 ± 0.20 mmol/L
same,LDL serum cholesterol concentration,normoglycaemic rats [4],0.11 ± 0.04 mmol/L
same,Serum total cholesterol concentration,normoglycaemic rats [4],0.99 ± 0.30 mmol/L
same,LDL:HDL Ratio (ratios of means),normoglycaemic rats [4],0.01
same,Effect on C peptide levels (in words),normoglycaemic rats [5],"Neither stevioside or 3α,7α-dihydroxy-12-oxo-5β-cholanate alone had statistically significant effects"
same,C peptide serum concentration,normoglycaemic rats [5],230.87 ± 80.64 pmol/L
"CC[C@H](C)C(=O)O[C@H]1C[C@@H](C)C=C2C=C[C@H](C)[C@H](CC[C@@H]3C[C@@H](O)CC(=O)O3)[C@H]21 [Lovastatin, reference compound]",HDL cholesterol,diabetic rats [6],0.74 ± 0.16 mmol/L
same,LDL cholesterol,diabetic rats [6],0.09 ± 0.17 mmol/L
same,LDL/HDL ratio,diabetic rats [6],0.15 ± 0.29
same,Total cholesterol,diabetic rats [6],1.19 ± 0.06 mmol/L
same,Change in total cholesterol (in words),diabetic rats [6],reduced total cholesterol by a similar amount
same,Change in HDL levels (in words),diabetic rats [6]; [7],reduced HDLs significantly

# Reference: US20090074895A1, “COMPOSITION AND USES THEREOF” (VANADIS BIOSCIENCE LTD, priority 2005, published 2009)
